1 compound from ChEMBL document CHEMBL3886984, “Tetrahydroimidazo(1,5-D)[1,4]oxazepine derivative” (2016) can be followed below.

The test has as its target Metabotropic glutamate receptor 2 (Homo sapiens, UniProt Q14416). Kind of test: [35S]GTPgammaS Binding Assay: The frozen cell membrane fraction prepared as described above was thawed before use, and the resultant was diluted with a buffer for a binding assay (final concentrations: 20 mM HEPES, 100 mM NaCl, 1 mM MgCl2, 3 uM GDP, 300 ug/mL saponin, 0.1% BSA). The compound of each example was added to a cell membrane fraction containing 1.8 to 3 ug/assay of membrane protein on a plate, followed by incubation at room temperature for 30 minutes. Thereafter, with glutamic acid (in a final concentration of 10 uM) added thereto, incubation was performed at room temperature for 15 minutes, and thereafter, [35S]GTPγS (in a final concentration of 0.8 kBq) and 588 ug WGA-SPA beads were added thereto, followed by incubation at room temperature for 1 hour. After the incubation, the plate was subjected to the centrifugal separation at 2,500 rpm and room temperature, and then, membrane cell binding radioactivity was measured with a top count. A [35S]GTPγS binding amount obtained in the presence of glutamic acid was defined as specific binding. On the basis of ratios of inhibiting the specific binding at various concentrations of the compounds of the respective examples, inhibition curves were obtained. […]. Type of test: functional.

Chain of Metabotropic glutamate receptor 2 (Q14416 whole entry): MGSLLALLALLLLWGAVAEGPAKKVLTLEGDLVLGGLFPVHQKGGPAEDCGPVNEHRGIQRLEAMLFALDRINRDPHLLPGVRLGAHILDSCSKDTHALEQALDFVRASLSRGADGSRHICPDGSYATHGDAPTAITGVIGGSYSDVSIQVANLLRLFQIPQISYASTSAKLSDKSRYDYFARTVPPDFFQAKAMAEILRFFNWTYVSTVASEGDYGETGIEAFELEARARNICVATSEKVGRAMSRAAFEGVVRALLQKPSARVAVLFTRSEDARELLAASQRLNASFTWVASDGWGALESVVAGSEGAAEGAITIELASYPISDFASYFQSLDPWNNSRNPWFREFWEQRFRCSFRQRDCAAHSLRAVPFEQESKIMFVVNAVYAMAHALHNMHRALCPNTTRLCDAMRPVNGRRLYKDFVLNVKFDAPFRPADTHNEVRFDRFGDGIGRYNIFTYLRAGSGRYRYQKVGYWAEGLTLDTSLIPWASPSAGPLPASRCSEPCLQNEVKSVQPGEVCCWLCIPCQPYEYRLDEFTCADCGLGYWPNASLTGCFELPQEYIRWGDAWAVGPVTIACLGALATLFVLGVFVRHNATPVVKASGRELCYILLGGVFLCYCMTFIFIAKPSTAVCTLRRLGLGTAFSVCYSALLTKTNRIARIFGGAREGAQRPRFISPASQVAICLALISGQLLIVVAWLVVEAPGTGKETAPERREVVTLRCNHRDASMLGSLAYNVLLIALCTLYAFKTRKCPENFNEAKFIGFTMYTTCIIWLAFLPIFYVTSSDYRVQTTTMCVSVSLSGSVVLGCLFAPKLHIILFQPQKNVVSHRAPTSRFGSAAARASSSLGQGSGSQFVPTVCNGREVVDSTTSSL

Turning to `CCc1ccc(-c2nc(-c3cc(C)nc(C)c3)c3n2C[C@@H](C)OCC3)cc1OC`, the IC50 is 4.2 nM.
